Results as given in patent US20260250251A1, “HETEROCYCLIC COMPOUNDS AS PI3Ka INHIBITORS” (Pikavation Therapeutics, Inc., priority 2022, published 2026).

How the values were obtained:
[1] = test system: SKBR3 (PIK3CA WT) cells, pSer473 AKT; test: pS473 AKT assay in SKBR3 cells; type: cell-based; conditions: Homo sapiens, SK-BR-3, treated 2 h, read-out: SKBR3_IC50
Description: (§1) SKBR3 (PIK3CA WT), MCF7 (PIK3CA E545K), and T47D (PIK3CA H1047R) cells were cultured using 10-cm petri dishes with recommended medium. One day before the assay, cells were seeded in 96-well plates. After overnight incubation, cells were treated with different concentrations of PI3Kα inhibitors for 2 h. Cells were then fixed using 4% paraformaldehyde at room temperature for 20 min. Cells were aspirated with 4% paraformaldehyde, and washed using 1× regular phosphate buffered saline 3 times, 5 min each. Any residual phosphate buffered saline was aspirated and cells were blocked using 10% goat serum containing 1% bovine serum albumin and 0.3% Triton X-100 at room temperature for 1 h. Without any additional washing, primary antibodies (rabbit anti-pSer473 AKT) were diluted using blocking buffer and added at a final volume of 50 microliter per well. Assay plates with primary antibodies were maintained overnight at 4° C. Cells were washed using 1× regular phosphate buffered saline 3 times, 5 min each. After the final wash, cells were incubated with horseradish peroxidase-conjugated secondary antibodies (goat Anti-rabbit IgG) and diluted using the same blocking buffer at room temperature for 1 h. Cells were then washed thoroughly using 1× regular phosphate buffered saline 3 times, 5 min each, and any residual phosphate buffered saline was aspirated. Super-Signal ELISA Pico Chemiluminescent Substrate was then added at a final volume of 100 microliter per well. Plates were read on a i3x Multi-Mode Microplate Reader and IC50 values calculated using GraphPad Prism software.
(§2) Results of the assay described above are presented in Table A. “++++” indicates an IC50 less than 1000 nM; “+++” indicates an IC50 greater than or equal to 1000 nM but less than 5000 nM; “++” indicates an IC50 greater than or equal to 5000 nM but less than 10000 nM; and “+” indicates an IC50 greater than or equal to 10000 nM.

[2] = test system: T47D (PIK3CA H1047R) cells, pSer473 AKT; test: pS473 AKT assay in T47D cells; type: cell-based; conditions: Homo sapiens, treated 2 h, read-out: T47D_IC50
Description: as §1, §2

SMILES | IC50 [1] [nM] | IC50 [2] [nM]
Cn1nc(N)c2c(Oc3cc(F)ccc3Cl)c(NC(=O)c3cc(F)cc(C(F)(F)F)c3)cc(Br)c21 [Example 25, N-(3-Amino-7-bromo-4-(2-chloro-5-fluorophenoxy)-1-methyl-1H-indazol-5-yl)-3-fluoro-5-(trifluoromethyl)benzamide] | < 1000 | < 1000
Nc1n[nH]c2ccc(NC(=O)c3cc(F)cc(C(F)(F)F)c3)c(Oc3cc(F)ccc3Cl)c12 [Example 1, N-(3-Amino-4-(2-chloro-5-fluorophenoxy)-1H-indazol-5-yl)-3-fluoro-5-(trifluoromethyl)benzamide] | < 1000 | < 1000
Cn1nc(N)c2c(Oc3cc(F)ccc3Cl)c(NC(=O)c3cncc(C(F)(F)F)c3)cc(Cl)c21 [Example 62, N-(3-Amino-7-chloro-4-(2-chloro-5-fluorophenoxy)-1-methyl-1H-indazol-5-yl)-5-(trifluoromethyl)nicotinamide] | 1000 to 5000 | < 1000
Nc1n[nH]c2ccc(NC(=O)c3cc(F)cc(C(F)(F)F)c3)c(Cc3cc(F)ccc3Cl)c12 [Example 5, N-(3-Amino-4-(2-chloro-5-fluorobenzyl)-1H-indazol-5-yl)-3-fluoro-5-(trifluoromethyl)benzamide] | 5000 to 10000 | 1000 to 5000
Cn1nc(N)c2c(Oc3cc(F)ccc3Cl)c(NC(=O)c3cc(F)cc(C(F)(F)F)c3)cc(C#CCO)c21 [Example 49, N-(3-Amino-4-(2-chloro-5-fluorophenoxy)-7-(3-hydroxyprop-1-yn-1-yl)-1-methyl-1H-indazol-5-yl)-3-fluoro-5-(trifluoromethyl)benzamide] | < 1000 | < 1000
CC(=O)N1CCC(C#Cc2cc(NC(=O)c3cc(F)cc(C(F)(F)F)c3)c(Oc3cc(F)ccc3Cl)c3c(N)nn(C)c23)CC1 [Example 52, N-(7-((1-Acetylpiperidin-4-yl)ethynyl)-3-amino-4-(2-chloro-5-fluorophenoxy)-1-methyl-1H-indazol-5-yl)-3-fluoro-5-(trifluoromethyl)benzamide] | 1000 to 5000 | < 1000
Cn1nc(N)c2c(Oc3cc(F)ccc3Cl)c(NC(=O)c3cc(F)cc(C(F)(F)F)c3)cc(C#CC3CCOCC3)c21 [Example 38, N-(3-Amino-4-(2-chloro-5-fluorophenoxy)-1-methyl-7-((tetrahydro-2H-pyran-4-yl)ethynyl)-1H-indazol-5-yl)-3-fluoro-5-(trifluoromethyl)benzamide] | 1000 to 5000 | < 1000
Nc1nn(CC(=O)N2CCOCC2)c2ccc(NC(=O)c3cc(F)cc(C(F)(F)F)c3)c(Oc3cc(F)ccc3Cl)c12 [Example 10, N-(3-Amino-4-(2-chloro-5-fluorophenoxy)-1-(2-morpholino-2-oxoethyl)-1H-indazol-5-yl)-3-fluoro-5-(trifluoromethyl)benzamide] | 1000 to 5000 | < 1000
Cn1nc(N)c2c(Oc3cc(F)ccc3Cl)c(NC(=O)c3cc(F)cc(Cl)c3)cc(Cl)c21 [Example 60, N-(3-Amino-7-chloro-4-(2-chloro-5-fluorophenoxy)-1-methyl-1H-indazol-5-yl)-3-chloro-5-fluorobenzamide] | < 1000 | < 1000
Nc1nn2c(=O)c3c(c4cc(NC(=O)c5cc(F)cc(C(F)(F)F)c5)c(Oc5cc(F)ccc5Cl)c1c42)CCCC3 [Example 75, N-(4-Amino-3-(2-chloro-5-fluorophenoxy)-7-oxo-8,9,10,11-tetrahydro-7H-pyrazolo[4,5,1-de]phenanthridin-2-yl)-3-fluoro-5-(trifluoromethyl)benzamide] | < 1000 | < 1000
Nc1n[nH]c2c(CN3CCOCC3)cc(NC(=O)c3cc(F)cc(C(F)(F)F)c3)c(Oc3cc(F)ccc3Cl)c12 [Example 21, N-(3-Amino-4-(2-chloro-5-fluorophenoxy)-7-(morpholinomethyl)-1H-indazol-5-yl)-3-fluoro-5-(trifluoromethyl)benzamide] | < 1000 | < 1000
Nc1nn2c(=O)c3c(c4cc(NC(=O)c5cc(F)cc(C(F)(F)F)c5)c(Oc5cc(F)ccc5Cl)c1c42)CCC3 [Example 74, N-(4-Amino-3-(2-chloro-5-fluorophenoxy)-7-oxo-7,8,9,10-tetrahydrocyclopenta[c]pyrazolo[4,5,1-ij]quinolin-2-yl)-3-fluoro-5-(trifluoromethyl)benzamide] | < 1000 | < 1000
CN1Cc2cc(NC(=O)c3cc(F)cc(C(F)(F)F)c3)c(Oc3cc(F)ccc3Cl)c3c(N)nn(c23)C1=O [Example 69, N-(2-Amino-3-(2-chloro-5-fluorophenoxy)-7-methyl-8-oxo-7,8-dihydro-6H-pyrazolo[4,5,1-ij]quinazolin-4-yl)-3-fluoro-5-(trifluoromethyl)benzamide] | < 1000 | < 1000
NC(=O)Cn1nc(N)c2c(Oc3cc(F)ccc3Cl)c(NC(=O)c3cc(F)cc(C(F)(F)F)c3)cc(Br)c21 [Example 33, N-(3-Amino-1-(2-amino-2-oxoethyl)-7-bromo-4-(2-chloro-5-fluorophenoxy)-1H-indazol-5-yl)-3-fluoro-5-(trifluoromethyl)benzamide] | 1000 to 5000 | < 1000
Cc1cc(NC(=O)c2cc(F)cc(C(F)(F)F)c2)c(Oc2cc(F)ccc2Cl)c2c(N)n[nH]c12 [Example 13, N-(3-Amino-4-(2-chloro-5-fluorophenoxy)-7-methyl-1H-indazol-5-yl)-3-fluoro-5-(trifluoromethyl)benzamide] | < 1000 | < 1000
CNc1n[nH]c2ccc(NC(=O)c3cc(F)cc(C(F)(F)F)c3)c(Oc3cc(F)ccc3Cl)c12 [Example 2, N-(4-(2-Chloro-5-fluorophenoxy)-3-(methylamino)-1H-indazol-5-yl)-3-fluoro-5-(trifluoromethyl)benzamide] | 1000 to 5000 | < 1000
Cn1nc(N)c2c(Oc3cc(F)ccc3Cl)c(NC(=O)c3cc(F)cc(C(F)(F)F)c3)cc(-c3cnn(C4CCOC4)c3)c21 (stereo not drawn) [Example 28, N-(3-Amino-4-(2-chloro-5-fluorophenoxy)-1-methyl-7-(1-(tetrahydrofuran-3-yl)-1H-pyrazol-4-yl)-1H-indazol-5-yl)-3-fluoro-5-(trifluoromethyl)benzamide] | < 1000 | < 1000
Nc1n[nH]c2c(-c3cccnc3)cc(NC(=O)c3cc(F)cc(C(F)(F)F)c3)c(Oc3cc(F)ccc3Cl)c12 [Example 16, N-(3-Amino-4-(2-chloro-5-fluorophenoxy)-7-(pyridin-3-yl)-1H-indazol-5-yl)-3-fluoro-5-(trifluoromethyl)benzamide] | 1000 to 5000 | < 1000
Nc1nn(CCN2CCC2)c2c(Cl)cc(NC(=O)c3cc(F)cc(C(F)(F)F)c3)c(Oc3cc(F)ccc3Cl)c12 [Example 56, N-(3-Amino-1-(2-(azetidin-1-yl)ethyl)-7-chloro-4-(2-chloro-5-fluorophenoxy)-1H-indazol-5-yl)-3-fluoro-5-(trifluoromethyl)benzamide] | 1000 to 5000 | < 1000
Cn1nc(N)c2c(Oc3cc(F)ccc3Cl)c(NC(=O)c3cc(F)cc(C(F)(F)F)c3)cc(C#Cc3ccccn3)c21 [Example 37, N-(3-Amino-4-(2-chloro-5-fluorophenoxy)-1-methyl-7-(pyridin-2-ylethynyl)-1H-indazol-5-yl)-3-fluoro-5-(trifluoromethyl)benzamide] | 1000 to 5000 | < 1000
Cn1nc(N)c2c(Oc3cc(F)ccc3Cl)c(NC(=O)c3cc(F)cc(C(F)(F)F)c3)cc(C#CC3(CO)CC3)c21 [Example 44, N-(3-Amino-4-(2-chloro-5-fluorophenoxy)-7-((1-(hydroxymethyl)cyclopropyl)ethynyl)-1-methyl-1H-indazol-5-yl)-3-fluoro-5-(trifluoromethyl)benzamide] | < 1000 | < 1000
Cn1nc(N)c2c(Oc3cc(F)ccc3Cl)c(NC(=O)c3cc(F)cc(C(F)(F)F)c3)cc(N3CCn4ncnc4C3)c21 [Example 55, N-(3-Amino-4-(2-chloro-5-fluorophenoxy)-7-(5,6-dihydro-[1,2,4]triazolo[1,5-a]pyrazin-7(8H)-yl)-1-methyl-1H-indazol-5-yl)-3-fluoro-5-(trifluoromethyl)benzamide] | 1000 to 5000 | < 1000
Nc1nnc2ccc(NC(=O)c3cc(F)cc(C(F)(F)F)c3)c(Oc3cc(F)ccc3Cl)n12 [Example 20, N-(3-Amino-5-(2-chloro-5-fluorophenoxy)-[1,2,4]triazolo[4,3-a]pyridin-6-yl)-3-fluoro-5-(trifluoromethyl)benzamide] | 1000 to 5000 | < 1000
Nc1nn2c3c(cc(NC(=O)c4cc(F)cc(C(F)(F)F)c4)c(Oc4cc(F)ccc4Cl)c13)NC(=O)C2 [Example 32, N-(6-Amino-7-(2-chloro-5-fluorophenoxy)-2-oxo-2,3-dihydro-1H-pyrazolo[1,5,4-de]quinoxalin-8-yl)-3-fluoro-5-(trifluoromethyl)benzamide] | < 1000 | < 1000
